Assay results as given in patent US12258360B2, “Compositions and methods for treatment of anticancer-drug resistant cancers” (THE GEORGE WASHINGTON UNIVERSITY, priority 2020, dated 2025).

Columns and labels:
IGROV1 CR cells [1] = experiment: clonogenic assay, combination with cisplatin; assay type: cell-based, human
Description: Clonogenic survival assays were also performed. In brief, cells were seeded in 6-well dishes at a density of 500 cells per dish then treated with the cisplatin at the indicated concentrations (See FIGS. 23 and 24). Cells were then kept in the incubator for 10-14 days to allow colony formation. Colonies were visualized by crystal violet staining. Colonies with >50 cells were counted.

And-1 [2] = molecular target: T1, And-1 (Homo sapiens, UniProt O75717); experiment: fluorescent boron sensor DAHMI staining of live IGROV1 cells; assay type: cell-based; parameters: endogenous in cells; host or cells: IGROV1 CR
T1 sequence (O75717 1-1129): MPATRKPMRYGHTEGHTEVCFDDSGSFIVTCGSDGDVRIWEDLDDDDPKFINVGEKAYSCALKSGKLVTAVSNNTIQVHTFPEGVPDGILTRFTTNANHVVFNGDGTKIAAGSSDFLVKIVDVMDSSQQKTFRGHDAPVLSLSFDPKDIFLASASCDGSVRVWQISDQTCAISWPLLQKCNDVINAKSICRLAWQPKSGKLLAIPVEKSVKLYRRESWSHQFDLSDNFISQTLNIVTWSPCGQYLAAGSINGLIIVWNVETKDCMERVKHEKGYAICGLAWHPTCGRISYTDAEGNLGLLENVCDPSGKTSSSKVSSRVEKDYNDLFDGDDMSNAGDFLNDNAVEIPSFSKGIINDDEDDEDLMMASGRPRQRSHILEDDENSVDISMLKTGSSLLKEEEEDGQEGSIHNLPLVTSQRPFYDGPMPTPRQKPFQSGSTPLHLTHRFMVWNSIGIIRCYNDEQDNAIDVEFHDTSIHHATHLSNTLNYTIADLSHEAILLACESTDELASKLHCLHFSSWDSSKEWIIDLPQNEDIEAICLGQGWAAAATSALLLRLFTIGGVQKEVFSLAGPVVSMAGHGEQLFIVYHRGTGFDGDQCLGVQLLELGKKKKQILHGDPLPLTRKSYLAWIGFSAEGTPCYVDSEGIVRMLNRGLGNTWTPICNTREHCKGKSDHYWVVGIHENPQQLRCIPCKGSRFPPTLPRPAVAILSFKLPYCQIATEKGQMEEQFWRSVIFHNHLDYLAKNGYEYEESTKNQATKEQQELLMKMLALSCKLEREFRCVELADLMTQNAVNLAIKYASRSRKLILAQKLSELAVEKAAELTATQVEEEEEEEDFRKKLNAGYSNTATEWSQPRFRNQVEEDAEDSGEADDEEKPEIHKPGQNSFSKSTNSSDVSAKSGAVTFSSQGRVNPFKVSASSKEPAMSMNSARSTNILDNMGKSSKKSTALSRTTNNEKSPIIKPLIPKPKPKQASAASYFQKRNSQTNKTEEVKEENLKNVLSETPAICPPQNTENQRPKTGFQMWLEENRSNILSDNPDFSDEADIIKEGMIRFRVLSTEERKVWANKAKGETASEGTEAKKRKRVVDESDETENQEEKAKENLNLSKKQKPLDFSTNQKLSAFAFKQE
Description: Boron-containing compounds can be visualized using a fluorescent boron sensor DAHMI. To determine the binding specificity of CH3 to And-1, the distribution of CH3 in live cells was examined using DAHMI.

And-1 polymerization = molecular target: T2, And-1 polymerization (Homo sapiens, UniProt O75717); experiment: FLAG-And-1 / HA-And-1 co-immunoprecipitation in U2OS cells; assay type: cell-based
T2 construct: expressed in transfected cells; host or cells: U2OS
T2 sequence (O75717 1-1129): T1 sequence (O75717 1-1129)
Description: Human And-1 exists as a homotrimer mediated by the SepB domain. To determine whether the interaction of CH3 with the WD40 domain can disrupt And-1 polymerization, resulting in exposure of CUL4B binding site on And-1 to CUL4B, both FLAG-And-1 and HA-And-1 were transfected into U2OS cells and the protein-protein interaction was examined in the presence of CH3.

IGROV1 CR cells [3] = experiment: SRB cell viability, synergy with cisplatin (combination index); assay type: cell-based, human
Description: Given that And-1 phosphorylation was positively correlated with cisplatin resistance in OC according the Examples above, it was next determined whether And-1 phosphorylation contributes to cell survival in response to cisplatin. The cell viability to cisplatin in IGROV1, OV90 and mice ID80 cells overexpressed with FLAG-And-1-WT, FLAG-And-1-T826A and phosphomimetic FLAG-And-1-T826E was examined. In brief, cells were seeded in 96-well plate at a density of 3,000-5,000 cells per well and treated with indicated reagents for different concentration. Three days after treatment, the cell viability was measured by Sulforhodamine B (SRB) assay. The IC50 values and CI index were further determined by compusyn software. Every experiment was done in triplicate and repeated three times. […] To confirm And-1 was the primary target of ATR to promote platinum-resistance, the sensitivity of IGROV1 cells to cisplatin was examined using genetic analyses.
To determine whether And-1 inhibitors can overcome cisplatin resistance in OC cells, the synergy of And-1 inhibitors and cisplatin in IGROV1 CR cells was examined.

And-1 [4] = molecular target: T1, And-1; experiment: immunoblot analysis of And-1 expression in IGROV1 cells; assay type: cell-based; parameters: endogenous in cells; host or cells: IGROV1 CR
Description: The high IC50 of resveratrol compromises its potential clinical application; therefore, resveratrol was used as a lead compound to screen 12 analogs of resveratrol for potent compounds that can inhibit And-1 (FIG. 14). […] To perform immunoblot analyses, cells were first treated with increasing concentrations of the 12 analogs. After treatment, the cells were harvested and then lysed with RIPA buffer protease inhibitor and phosphatase inhibitor cocktail. Protein concentration was determined by the BCA protein assay. Equal amounts of whole cell lysates were separated on sodium dodecyl sulfate polyacrylamide gel electrophoresis (SDS-PAGE) and transferred onto nitrocellulose membranes. Membranes were then incubated in blocking solution (5% non-fat milk in 20 mM TRIS-HCl, 150 mM NaCl, 0.1% Tween-20) (TBST), followed by incubation with the indicated antibodies at 4° C. overnight. The membranes were then washed in TBST and incubated with HRP-conjugated secondary antibodies for 1 hour at room temperature (21° C.±2° C.). Antibody detection was performed with an enhanced chemiluminescence reaction.

SMILES: OB1OCc2cc(/C=C/c3ccc(Cl)c(Cl)c3)ccc21 [CH3]
- synergy with cisplatin on clonogenic capacity (IGROV1 CR cells [1]): synergy with cisplatin to reduce clonogenic capacity
- distribution of compound in live cells (DAHMI) (And-1 [2]): detected in nuclei
- interaction between HA-And-1 and FLAG-And-1 (And-1 polymerization): significantly decreased
- synergy with cisplatin to inhibit cell proliferation (combination index) (IGROV1 CR cells [3]): significant synergy
- And-1 protein levels (And-1 [4]; 5 μM for 48 hours, without MG132): reduced And-1 protein levels
- IC50 (And-1 [4]; immunoblot, read-out: IC50 for inhibition of And-1 expression): 2080 nM
